# Test results from patent US5855906A, “Intravaginal drug delivery devices for the administration of 17β-oestradiol precursors” (priority 1994, dated 1999).
# Entries after “also recorded” stand apart in the source; their conditions may differ. Read-outs that look alike come from different tables or passages of the source.
# Tests used:
# [1] = Nominal in vitro daily release from intravaginal rings under sink conditions (1% w/v benzalkonium chloride, 37 °C); type: physicochemical
# Procedure: The nominal in vitro release rates set out in Table 1 for the rings of Examples 1-5 were determined under sink conditions of 1% (w/v) benzalkonium chloride. These release rates were determined in the following manner.
# Each ring (n=4) was suspended in the dissolution medium in an individual flask which is then capped, placed in a suitable oven at 37° C. and shaken. The dissolution medium was changed every 24 hours (±30 minutes). An aliquot of the used dissolution medium was analysed by high performance liquid chromatography (HPLC) using reverse phase packing and UV detection (at 235 nm for 17β-oestradiol-3-acetate and for
# . The sensitivity of the original and improved analytical methods is 5 μg/100 ml.
# [2] = In vitro dissolution: mean daily release from full-length-core rings over up to 90 days in three media; type: physicochemical; details: for Mean Daily Release: 9 × 54 mm ring, core 141 × 2 mm, 37 °C, N = 4
# Description: In all cases the ring geometries comprise a ring of dimensions 9 mm (cross-sectional diameter)×54 mm (outer diameter) and containing a full length core (141 mm) of cross-sectional diameter 2 mm. […] The saline and benzalkonium chloride-containing media were chosen to ensure `sink conditions` in at least one medium for each intravaginal ring. It will be recognised by those skilled in the art that the term `sink conditions` refers to that set of experimental conditions in vitro which effectively simulates the active haemoperfusion that occurs in vivo, and which results in a maximum drug concentration gradient and maximum drug diffusion rate, at any given time, across the aqueous boundary layer. Thus, an in vitro dissolution experiment can be designed such that the solution solubility of the released drug in the dissolution medium is much greater than its bulk concentration in this medium at any given time, for example, by micellar drug solubilisation due to incorporation of a surfactant such as benzalkonium chloride (BKC), at a concentration above its critical micelle concentration. Thus, each ring was suspended by a thread in an individual closed flask containing the dissolution medium, maintained at a constant temperature of 37° C. The contents of the flask were gently agitated in order to prevent the occurrence of a hydrostatic layer on the surface of the ring. After 24 hours, the ring was removed and suspended in a flask of fresh dissolution medium of identical volume by a method identical to that previously described.
# [3] = In vitro release from rings of varying core length and apparent/standard k value (Crank's equation); type: physicochemical; design: Standard k: unit not given here; details: for apparent k value versus core length: Table 3 rings; for apparent k value versus core length / k: 1% (w/v) BKC; for Mean Daily Release / Standard k: Table 4, 1.0% (w/v) BKC; for Mean Daily Release / Mean Daily Release (as precursor): n = 5; for k: in µg/day/mm; for Mean Daily Release (as precursor): 250 ml 1% (w/v) BKC
# Description: Precursor release from a cylindrical device of core design, which comprises a polymer matrix in the form of a core incorporating 17β-oestradiol precursor and a sheath surrounding the core, can be described by Crank's equation: [formula] in which R=precursor release rate (μg/day)
# Crank's equation relates the precursor release rate (R), in sink conditions, to the solubility (C2 S) and diffusibility (D) of the precursor in the polymer matrix, its partition characteristics (π) between the polymer matrix and the dissolution medium; and the ring dimensions (l, b, a). For any given precursor in any given polymer matrix, CS, D and π will be constant and can be grouped together to form the composite constant, k:
# The k value can be empirically derived using Crank's equation in the following manner: [formula]
# The k value is dependent on core length for certain of the 17β-oestradiol precursors (see Example 6 hereinafter). Accordingly, the k value at a core length of 35 mm has been denoted "standard k" value hereinafter.
# Intravaginal drug delivery devices in the form of rings were prepared, each with a ring geometry as described in Table 3, by following the General Method of Manufacture set out hereinabove.
# The dissolution medium was changed daily, following the protocol set out hereinabove. Mean daily release rates from the second week of dissolution experiments were used to determine the apparent k values presented in Table 3.
# It was, therefore, decided to determine k values at a core length of 35 mm and such k values are hereinafter referred to as "standard k" values.
# The standard k value was determined from the mean daily release rates observed in Example 6. The dissolution medium of 1.0% (w/v) of an aqueous solution of benzalkonium chloride was used in respect of the various 17β-oestradiol precursors, so as to ensure sink conditions.
# [4] = Silicone solubility at 37 °C in Dow Corning 360 medical fluid; type: physicochemical; details: organic solvent or mixture, Dow Corning 360 medical fluid, 37 °C, read-out: Silicone solubility
# Procedure: Silicone solubility was determined at 37° C. in Dow Corning (Trade Mark) 360 medical fluid.
# [5] = Aqueous solubility in distilled water at 20 °C; details: water
# [6] = In vitro plasma hydrolysis (stability in human blood at 37 °C)
# [7] = in vitro; details: human, blood
# [8] = Stability during storage (observed in dissolution samples); details: dissolution medium samples
# [9] = Plasma 17β-oestradiol in post-menopausal women with 60 μg intravaginal ring, 14 days (Example 10); details: 60 μg ring, over 14 days
# [10] = cited from earlier work
# [11] = 17β-oestradiol ring; EP 0 253 109 0.5 to 25 μg per day; Smith et al 5 to 10 μg per day; cited from earlier work
# [12] = non-oral preparations, read-out: plasma levels of 17β-oestradiol, cited from earlier work
# [13] = shell ring; cited from earlier work
# [14] = shell ring, 58 mm × 9.5 mm; cited from earlier work
compound,measurement,setting,value
CC(=O)O[C@H]1CC[C@H]2[C@@H]3CCc4cc(O)ccc4[C@H]3CC[C@]12C,nominal in vitro daily release rate,"[1]; ""100 μg"" ring, core 2×141 mm",100 µg
same,Mean Daily Release,[2]; 0.9% (w/v) saline,24 μg per day
same,Mean Daily Release,[2]; 1.0% (w/v) BKC,96 μg per day
same,apparent k value versus core length,[3],varies with core length
same,Mean Daily Release,[3]; core length 35 mm,19.50 µg/day
same,Standard k,[3]; core length 35 mm,0.838
same,k (standard k),"[3]; Table 5, core length 35 mm",0.838 μg/day/mm
same,k,[3]; core length 35 mm,0.8380
same,Mean Daily Release (as precursor),[3]; core length 35 mm,19.50 µg/day
same,k,[3]; core length 70 mm,0.8797
same,Mean Daily Release (as precursor),[3]; core length 70 mm,40.94 µg/day
same,k,[3]; core length 140 mm,0.9395
same,Mean Daily Release (as precursor),[3]; core length 140 mm,87.45 µg/day
same,solubility,[4],17 µg/mL
same,solubility,[5],0.12 µg/mL
same,half-life,[6],4 h
CC(=O)Oc1ccc2c(c1)CC[C@@H]1[C@@H]2CC[C@]2(C)[C@@H](O)CC[C@@H]12 [17β-oestradiol-3-acetate],nominal in vitro daily release rate,"[1]; ""60 μg"" ring, core 2×12 mm, calculated as anhydrous 17β-oestradiol",57.5 to 62.5 µg
same,nominal in vitro daily release rate,"[1]; ""120 μg"" ring, core 2×24 mm, calculated as anhydrous 17β-oestradiol",115 to 125 µg
same,nominal in vitro daily release rate,"[1]; ""240 μg"" ring, core 2×47 mm, calculated as anhydrous 17β-oestradiol",230 to 250 µg
same,Mean Daily Release,[2]; 0.133% (w/v) BKC,700 μg per day
same,Mean Daily Release,[2]; 0.9% (w/v) saline,350 μg per day
same,Mean Daily Release,[2]; 1.0% (w/v) BKC,850 μg per day
same,release in vitro from intravaginal rings (in words),"[2]; BKC and saline media, ring geometry of Table 2","substantial release, in both BKC and in saline"
same,apparent k value versus core length,[3],varies with core length
same,Mean Daily Release,[3]; core length 35 mm,236.66 µg/day
same,Standard k,[3]; core length 35 mm,10.017
same,k (standard k),"[3]; Table 5, core length 35 mm",10.017 μg/day/mm
same,k,[3]; core length 6 mm,12.347
same,Mean Daily Release (as precursor),[3]; core length 6 mm,49.25 µg/day
same,k,[3]; core length 12 mm,11.517
same,Mean Daily Release (as precursor),[3]; core length 12 mm,91.88 µg/day
same,k,[3]; core length 25 mm,10.658
same,Mean Daily Release (as precursor),[3]; core length 25 mm,177.15 µg/day
same,k,[3]; core length 35 mm,10.017
same,Mean Daily Release (as precursor),[3]; core length 35 mm,236.66 µg/day
same,solubility,[4],186 µg/mL
same,half-life,[7],< 1 min
same,solubility,[5],3.8 µg/mL
same,stability during storage,[8],hydrolysis to 17β-oestradiol during storage
same,mean increase in plasma 17β-oestradiol,[9],117.98 pmol/L
C[C@]12CC[C@@H]3c4ccc(O)cc4CC[C@H]3[C@@H]1CC[C@@H]2O [17β-oestradiol],Mean Daily Release,[2]; 0.9% (w/v) saline,8 μg per day
same,k (using core of 141 mm length),"[3]; Table 5, core of 141 mm length",0.09 μg/day/mm
same,initial serum 17β-oestradiol level,"[10]; homogeneous ring 400 mg, within one hour, 60 min",about 700 pg/ml
same,mean serum 17β-oestradiol,"[10]; shell ring (100, 200 or 400 mg), one hour after insertion, 60 min",300 pg/mL
same,mean serum 17β-oestradiol (in words),"[10]; shell ring, baseline 24 pg/ml",approached the baseline level of 24 pg/ml within 24 hours; also recorded: falling back to the baseline at 2 and 3 months
same,alleviation of symptoms of hypo-oestrogenism (in words),[11],symptoms in the human female arising from a hypo-oestrogenic condition can be alleviated; also recorded: effective at alleviating those symptoms associated with hypo-oestrogenism that relate specifically to atrophy of vaginal and urethral epithelium
same,concentration,[12]; transdermal 50 μg per day (low dose),~0.2 nM
same,concentration,[12]; transdermal 100 μg per day (high dose),~0.36 nM
same,in vitro release rate of 17β-oestradiol,[13],200 μg per day
same,daily release,[14],180 μg per day
